Reference: patent US12668591B2, “1,2,4-oxadiazole derivatives as histone deacetylase 6 inhibitors” (Oryzon Genomics, S.A., priority 2017, dated 2026)

Legend:
HDAC2 = target: T1, HDAC2 (Homo sapiens, UniProt Q92769); assay: HDAC2 enzyme inhibition assay (fluorimetric); type: biochemical; settings: 1 μM compound; 3 h pre-incubation; recombinant full length HDAC2; read-out: HDAC2 % inh @ 1 μM
T1 construct: (full length with C-terminal His-tag); His (C); purchased BPS Bioscience Inc. 50002
Procedure: (§1) HDAC6 and HDAC2 Enzyme Inhibition Assay
(§2) A fluorimetric assay was used for testing the activity of compounds of the invention against HDAC6 and HDAC2.
(§3) The compounds were dissolved in DMSO. Serial dilutions were prepared in DMSO and then diluted 1:10 in HDAC assay buffer (Tris-buffered solution, BPS Bioscience Inc. #50031). 5 μl of the compound dilution was added to a 50 μl reaction so that the final concentration of DMSO was 1%.
(§4) The compounds were pre-incubated in duplicate at RT for 3 hours in a mixture containing HDAC assay buffer, 5 μg BSA and recombinant HDAC enzyme (see table above). The enzymatic reactions were initiated by the addition of a fluorogenic, acetylated peptide substrate based on a histone protein (BPS Bioscience Inc. #50037) to a final concentration of 10 μM. The enzymatic reaction proceeded for 30 minutes at 37° C. Then, 50 μl of 2× HDAC Developer, which contains peptidase activity and Trichostatin A (BPS Bioscience Inc. #50030) was added and the plate was incubated at RT for an additional 15 minutes. Fluorescence intensity was measured at an excitation of 360 nm and an emission of 460 nm using a Tecan Infinite M1000 microplate reader.
(§5) Trichostatin A (TSA, Selleckchem #S1045) was used as reference inhibitor.
(§6) The fluorescent intensity data were analyzed using the computer software Graphpad Prism (GraphPad Software, San Diego, CA). 100% activity was defined as the fluorescent intensity (Ft) in the absence of the compound. 0% activity was defined as the fluorescent intensity (Fb) in the absence of the enzyme. The percent activity in the presence of each compound was calculated according to the following equation: % activity=(F−Fb)/(Ft−Fb), where F=the fluorescent intensity in the presence of the compound.

HDAC6 [1] = target: T2, HDAC6 (Homo sapiens, UniProt Q9UBN7); assay: HDAC6 enzyme inhibition assay (fluorimetric); type: biochemical; settings: 1 μM compound; 3 h pre-incubation; recombinant full length HDAC6; read-out: HDAC6 % inh @ 1 μM
T2 sequence (Q9UBN7 1-1215): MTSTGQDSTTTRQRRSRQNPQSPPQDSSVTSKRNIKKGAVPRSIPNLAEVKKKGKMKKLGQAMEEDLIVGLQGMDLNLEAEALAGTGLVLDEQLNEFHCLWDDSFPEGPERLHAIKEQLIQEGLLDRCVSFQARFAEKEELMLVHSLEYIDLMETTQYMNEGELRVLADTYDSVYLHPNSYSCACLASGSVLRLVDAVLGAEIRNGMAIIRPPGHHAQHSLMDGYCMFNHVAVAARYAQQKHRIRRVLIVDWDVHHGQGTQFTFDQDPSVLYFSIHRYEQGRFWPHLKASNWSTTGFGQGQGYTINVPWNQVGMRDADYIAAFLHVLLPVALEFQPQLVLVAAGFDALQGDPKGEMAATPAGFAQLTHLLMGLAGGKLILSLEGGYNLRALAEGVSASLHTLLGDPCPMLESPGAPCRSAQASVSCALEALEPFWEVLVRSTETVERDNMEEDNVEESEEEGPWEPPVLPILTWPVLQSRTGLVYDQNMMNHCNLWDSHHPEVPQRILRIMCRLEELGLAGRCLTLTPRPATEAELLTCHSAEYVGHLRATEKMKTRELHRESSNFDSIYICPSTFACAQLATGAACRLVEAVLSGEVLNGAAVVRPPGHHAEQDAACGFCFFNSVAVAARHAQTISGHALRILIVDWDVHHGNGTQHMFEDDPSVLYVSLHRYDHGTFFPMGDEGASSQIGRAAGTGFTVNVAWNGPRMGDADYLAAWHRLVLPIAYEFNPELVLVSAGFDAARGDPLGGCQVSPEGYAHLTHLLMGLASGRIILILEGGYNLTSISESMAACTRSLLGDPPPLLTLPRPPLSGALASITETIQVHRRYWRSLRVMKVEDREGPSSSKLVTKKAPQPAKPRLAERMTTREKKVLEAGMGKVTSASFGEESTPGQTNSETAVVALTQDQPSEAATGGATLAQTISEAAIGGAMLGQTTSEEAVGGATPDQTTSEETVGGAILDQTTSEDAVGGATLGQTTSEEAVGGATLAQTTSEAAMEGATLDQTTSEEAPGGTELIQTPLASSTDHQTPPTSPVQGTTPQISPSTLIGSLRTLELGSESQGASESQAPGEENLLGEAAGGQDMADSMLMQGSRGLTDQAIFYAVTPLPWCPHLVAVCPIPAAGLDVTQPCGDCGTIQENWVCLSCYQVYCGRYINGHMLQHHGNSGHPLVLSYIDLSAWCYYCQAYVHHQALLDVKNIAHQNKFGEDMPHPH
Procedure: as §1, §2, §3, §4, §5, §6

HDAC6 [2] = target: T2, HDAC6; assay: In vitro cell-based assay: acetylation levels of Alpha-Tubulin by Western Blot in MOLP8 cells; design: endogenous in cells; host or cells: MOLP8; settings: 18 h, acetyl-alpha-tubulin relative band intensity, ACY-1215 1 μM = 100%
Method in brief: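 MOLP8 cells treated with compounds at 5 and 1 μM for 18 h at 37° C.; acetyl-alpha-tubulin measured by Western blot of RIPA extracts (7 μg protein). Bands normalized to total protein or beta-actin, expressed relative to ACY-1215 1 μM (100%), then classed.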

T1 sequence (Q92769 whole entry): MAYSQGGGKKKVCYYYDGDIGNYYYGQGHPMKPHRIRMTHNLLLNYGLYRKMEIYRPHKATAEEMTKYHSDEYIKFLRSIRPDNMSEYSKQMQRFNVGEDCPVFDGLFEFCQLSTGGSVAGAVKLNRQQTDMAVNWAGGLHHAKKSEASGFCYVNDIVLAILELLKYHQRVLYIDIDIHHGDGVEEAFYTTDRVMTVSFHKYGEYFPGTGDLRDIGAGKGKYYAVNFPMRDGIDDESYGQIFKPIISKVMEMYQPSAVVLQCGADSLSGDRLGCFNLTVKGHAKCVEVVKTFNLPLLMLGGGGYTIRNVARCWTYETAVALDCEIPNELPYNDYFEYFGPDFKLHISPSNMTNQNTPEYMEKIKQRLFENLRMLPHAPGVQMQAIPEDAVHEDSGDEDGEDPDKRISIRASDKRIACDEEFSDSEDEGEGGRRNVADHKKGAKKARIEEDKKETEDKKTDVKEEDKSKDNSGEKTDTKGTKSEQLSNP

inhibition at 1 µM (HDAC2) [%] | inhibition at 1 µM (HDAC6 [1]) [%] | Cellular activity @1 uM (HDAC6 [2]) | Cellular activity @5 uM (HDAC6 [2]) | SMILES
25 | 96 | ++ (150-300) | +++ (>300) | FC(F)(F)c1nc(-c2ccnc(-c3n[nH]c4cccnc34)c2)no1 [Example 4, 3-(2-(1H-Pyrazolo[4,3-b]pyridin-3-yl)pyridin-4-yl)-5-(trifluoromethyl)-1,2,4-oxadiazole]
27 | 95 | + (50-150) | + (50-150) | CCN(CC)CCCNc1ccc(-c2cc(-c3noc(C(F)(F)F)n3)ccn2)nc1 [Example 1k, N^1,N^1-Diethyl-N^3-(4′-(5-(trifluoromethyl)-1,2,4-oxadiazol-3-yl)-[2,2′-bipyridin]-5-yl)propane-1,3-diamine]
19 | 85 | + (50-150) | ++ (150-300) | COCCn1ccc2cnc(-c3cc(-c4noc(C(F)(F)F)n4)ccn3)cc21 [Example 1au, 3-(2-(1-(2-Methoxyethyl)-1H-pyrrolo[3,2-c]pyridin-6-yl)pyridin-4-yl)-5-(trifluoromethyl)-1,2,4-oxadiazole]
9 | 84 | + (50-150) | ++ (150-300) | FC(F)(F)c1nc(-c2ccnc(-c3ccc(OCCCN4CCOCC4)cn3)c2)no1 [Example 1e, 4-(3-((4′-(5-(Trifluoromethyl)-1,2,4-oxadiazol-3-yl)-[2,2′-bipyridin]-5-yl)oxy)propyl)morpholine]
38 | 96 | + (50-150) | +++ (>300) | CCCn1cc(CN2CCCCC2)c2cc(-c3cc(-c4noc(C(F)(F)F)n4)ccn3)ncc21 [Example 1g, 3-(2-(3-(Piperidin-1-ylmethyl)-1-propyl-1H-pyrrolo[2,3-c]pyridin-5-yl)pyridin-4-yl)-5-(trifluoromethyl)-1,2,4-oxadiazole]
27 | 92 | + (50-150) | ++ (150-300) | O=C(CN1CCC(F)(F)CC1)Nc1ccnc(-c2cc(-c3noc(C(F)(F)F)n3)ccn2)c1 [Example 1y, 2-(4,4-Difluoropiperidin-1-yl)-N-(4′-(5-(trifluoromethyl)-1,2,4-oxadiazol-3-yl)-[2,2′-bipyridin]-4-yl)acetamide]
6 | 86 | + (50-150) | ++ (150-300) | CCCCn1c(C(=O)N(CC)CC)cc2cc(-c3cc(-c4noc(C(F)(F)F)n4)ccn3)ncc21 [Example 1w, 1-Butyl-N,N-diethyl-5-(4-(5-(trifluoromethyl)-1,2,4-oxadiazol-3-yl)pyridin-2-yl)-1H-pyrrolo[2,3-c]pyridine-2-carboxamide]
2 | 89 | ++ (150-300) | ++ (150-300) | CCCCn1cc(C2=CCN(C)CC2)c2cc(-c3cc(-c4noc(C(F)(F)F)n4)ccn3)ncc21 [Example 1aq, 3-(2-(1-Butyl-3-(1-methyl-1,2,3,6-tetrahydropyridin-4-yl)-1H-pyrrolo[2,3-c]pyridin-5-yl)pyridin-4-yl)-5-(trifluoromethyl)-1,2,4-oxadiazole]
38 | 93 | ++ (150-300) | ++ (150-300) | FC1(F)CCN(CCn2ccc3cnc(-c4cc(-c5noc(C(F)(F)F)n5)ccn4)cc32)CC1 [Example 1ab, 3-(2-(1-(2-(4,4-Difluoropiperidin-1-yl)ethyl)-1H-pyrrolo[3,2-c]pyridin-6-yl)pyridin-4-yl)-5-(trifluoromethyl)-1,2,4-oxadiazole]
